Key:
GPR23 = biological target: T1, GPR23 (Homo sapiens, UniProt Q99677); assay: Receptor binding profile of VSN16R; details: 10µM VSN16R
T1 construct: purchased Cerep; Chantest; DiscoveRx; Multispan; MDS Pharma Services

rabbits = assay: Reproductive toxicology in rabbits; format: in vivo, rabbit
Protocol: (§1) Twenty‐eight day toxicology in rats and dogs for Investigational New Drug filing was performed by Charles Rivers (UK). Reproductive toxicology in rabbits was performed by Charles Rivers (Canada). Pharmacokinetic and/or toxicological doses ranged from 5 to 1000 mg·kg^−1 p.o. in Sprague Dawley male and female rats (n = 6‐26 per group), 50–200 mg·kg^−1 p.o. in male and female Beagle dogs (n = 6 per group) and 100–750 mg·kg^−1 p.o. in female New Zealand white rabbits (n = 9 per group). Results are expressed as mean ± SD.

EDG2 = biological target: T2, EDG2 (Homo sapiens, UniProt Q92633); assay: Receptor binding profile of VSN16R; details: 10µM VSN16R
T2 construct: purchased Cerep; Chantest; DiscoveRx; Multispan; MDS Pharma Services

rats [1] = assay: Irwin test; format: in vivo, rat
5-HT1A = biological target: T3, 5-HT1A (Homo sapiens, UniProt P08908); assay: Receptor binding profile of VSN16R; details: 10µM VSN16R
T3 construct: purchased Cerep; Chantest; DiscoveRx; Multispan; MDS Pharma Services

δ2 = biological target: T4, δ2 (Homo sapiens, UniProt P41143); assay: Receptor binding profile of VSN16R; details: 10µM VSN16R
T4 construct: purchased Cerep; Chantest; DiscoveRx; Multispan; MDS Pharma Services

A3 = biological target: T5, A3 (Homo sapiens, UniProt P0DMS8); assay: Receptor binding profile of VSN16R; details: 10µM VSN16R
T5 construct: purchased Cerep; Chantest; DiscoveRx; Multispan; MDS Pharma Services

dogs = assay: 28 day toxicology in dogs (50, 100, 200mg/kg p.o.); format: in vivo, dog
Protocol: as §1
(§2) Tissue Analysed Result of Tissue Analysis in Rats Result of Tissue Analysis in Dogs Artery, Aorta Negative Negative
(§3) Bone Marrow femur Negative Negative
(§4) Bone Marrow sternum Negative Negative
(§5) Bone, Sternum Negative Negative
(§6) Epididymus Negative Negative
(§7) Adrenal Gland Negative Negative
(§8) Mammary Grand Negative Negative
(§9) Parathyroid Gland Negative Negative
(§10) Pituitary Gland Negative Negative
(§11) Prostate Gland Negative Negative
(§12) Salivary Gland Negative Negative
(§13) Seminal Vesicle Gland Negative Negative
(§14) Gut associated lymphoid Negative Negative
(§15) Large Intestine caecum Negative Negative
(§16) Large Intestine colon Negative Negative
(§17) Large Intestine rectum Negative Negative
(§18) Mandibular Lymph Node Negative Negative
(§19) Mesenteric Lymph Node Negative Negative
(§20) Skeletal Muscle Negative Negative
(§21) Nasal Cavity Negative Negative
(§22) Sciatic Nerve Negative Negative
(§23) Oesophagus Negative Negative
Pancreas Negative Negative […]

EDG8 = biological target: T6, EDG8 (Homo sapiens, UniProt Q9H228); assay: Receptor binding profile of VSN16R; details: 10µM VSN16R
T6 construct: purchased Cerep; Chantest; DiscoveRx; Multispan; MDS Pharma Services

[2] = biological target: T7, hCB2 Receptor (CHO-K1.CNR2) (Homo sapiens, UniProt P34972); assay: GTPγS Binding assay, CHO-K1.CNR2; format: biochemical; details: max. tested 10μM
T7 construct: expressed in transfected cells; host or cells: CHO-K1

hERG Kv11.1 K+ channel = biological target: T8, hERG Kv11.1 K+ channel (Homo sapiens, UniProt Q12809); assay: Receptor binding profile of VSN16R; details: tested to 100 µM
T8 construct: purchased Cerep; Chantest; DiscoveRx; Multispan; MDS Pharma Services

CB2 = biological target: T9, CB2 (Homo sapiens, UniProt P34972); assay: Receptor binding profile of VSN16R
T9 construct: purchased Cerep; Chantest; DiscoveRx; Multispan; MDS Pharma Services

[3] = biological target: CYP450 1A2 (Homo sapiens)
Text: (§24) Inhibition of binding of either 3-cyano-7-ethoxycoumarin, dibenzylfluorescein or 7-benzyoxy-4-
(§25) (trifluoromethyl) coumarin in human enzyme transfected BTI NN-5B1-4 cells or Sf9 insect cells or
(§26) inhibition of dextromethorphan substrate to CYP450 2D6 in liver microsomes.

CYP450 2D6 = biological target: T10, CYP450 2D6 (Homo sapiens, UniProt P10635); assay: CYP450 inhibition of dextromethorphan substrate in liver microsomes; format: in vitro ADME; details: read-out: IC50 Inhibition of substrate binding, VSN16R
T10 construct: from tissue; host or cells: liver microsomes
Text: as §24, §25, §26

CYP450 2C19 = CYP450 2C19 (Homo sapiens, UniProt P33261)
Text: as §24, §25, §26

5-HT6 = biological target: T11, 5-HT6 (Homo sapiens, UniProt P50406); assay: Receptor binding profile of VSN16R; details: 10µM VSN16R
T11 construct: purchased Cerep; Chantest; DiscoveRx; Multispan; MDS Pharma Services

rats [4] = assay: 28 day toxicology in rats (100, 300, 1000mg/kg p.o.); format: in vivo, rat
Protocol: as §1, §2, §3, §4, §5, §6, §7, §8, §9, §10, §11, §12, §13, §14, §15, §16, §17, §18, §19, §20, §21, §22, §23
Pancreas Negative Negative
Small Intestine, duodenum Negative Negative
Small Intestine, Ileum Negative Negative […]
Following 28 day toxicology of feeding either: rats treated with 100mg/kg, 300mg/kg, 1000mg/kg p.o. (n-20/group) or dogs treated with 50mg/kg, 100mg/kg or 200mg/kg p.o. (n=6/group). […] Studies were performed by Charles Rivers, Ltd. However, * There was hypertrophy of the liver that was evident at high doses VSN16R was associated with liver weight (mean ± SD) increases: 11.0 ± 1.2g placebo, 11.6 ± 1.3g (300mg/kg p.o.), 16.7 ± 2.1g (1000mg/kg p.o. P<0.001 assessed using Students t test. n= 10 female rats/group) associated with liver enzyme induction, supporting enhanced VSN16R clearance in pharmacokinetic studies. […]

EDG6 = biological target: T12, EDG6 (Homo sapiens, UniProt O95977); assay: Receptor binding profile of VSN16R; details: 10µM VSN16R
T12 construct: purchased Cerep; Chantest; DiscoveRx; Multispan; MDS Pharma Services
T12 sequence (O95977 whole entry): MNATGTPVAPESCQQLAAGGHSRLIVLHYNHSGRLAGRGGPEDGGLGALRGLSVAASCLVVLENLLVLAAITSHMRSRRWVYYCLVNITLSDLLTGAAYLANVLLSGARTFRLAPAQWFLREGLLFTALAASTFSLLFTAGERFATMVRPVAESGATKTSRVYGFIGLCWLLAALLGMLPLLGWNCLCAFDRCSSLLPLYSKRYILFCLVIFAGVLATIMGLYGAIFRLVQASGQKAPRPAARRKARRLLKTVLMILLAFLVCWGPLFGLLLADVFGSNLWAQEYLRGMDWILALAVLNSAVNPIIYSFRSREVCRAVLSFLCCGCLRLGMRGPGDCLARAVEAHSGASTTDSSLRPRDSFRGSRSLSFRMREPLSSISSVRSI

T9 sequence (P34972 whole entry): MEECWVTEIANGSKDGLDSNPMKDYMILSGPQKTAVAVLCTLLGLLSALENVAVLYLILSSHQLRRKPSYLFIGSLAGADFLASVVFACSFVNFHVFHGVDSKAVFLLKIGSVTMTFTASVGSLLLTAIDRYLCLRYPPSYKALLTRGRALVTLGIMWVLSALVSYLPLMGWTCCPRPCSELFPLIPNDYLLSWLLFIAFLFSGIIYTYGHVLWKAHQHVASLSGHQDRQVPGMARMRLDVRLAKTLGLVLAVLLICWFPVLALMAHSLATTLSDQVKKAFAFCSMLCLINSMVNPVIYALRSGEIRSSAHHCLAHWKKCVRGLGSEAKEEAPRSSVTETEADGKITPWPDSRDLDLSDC
T8 sequence (Q12809 whole entry): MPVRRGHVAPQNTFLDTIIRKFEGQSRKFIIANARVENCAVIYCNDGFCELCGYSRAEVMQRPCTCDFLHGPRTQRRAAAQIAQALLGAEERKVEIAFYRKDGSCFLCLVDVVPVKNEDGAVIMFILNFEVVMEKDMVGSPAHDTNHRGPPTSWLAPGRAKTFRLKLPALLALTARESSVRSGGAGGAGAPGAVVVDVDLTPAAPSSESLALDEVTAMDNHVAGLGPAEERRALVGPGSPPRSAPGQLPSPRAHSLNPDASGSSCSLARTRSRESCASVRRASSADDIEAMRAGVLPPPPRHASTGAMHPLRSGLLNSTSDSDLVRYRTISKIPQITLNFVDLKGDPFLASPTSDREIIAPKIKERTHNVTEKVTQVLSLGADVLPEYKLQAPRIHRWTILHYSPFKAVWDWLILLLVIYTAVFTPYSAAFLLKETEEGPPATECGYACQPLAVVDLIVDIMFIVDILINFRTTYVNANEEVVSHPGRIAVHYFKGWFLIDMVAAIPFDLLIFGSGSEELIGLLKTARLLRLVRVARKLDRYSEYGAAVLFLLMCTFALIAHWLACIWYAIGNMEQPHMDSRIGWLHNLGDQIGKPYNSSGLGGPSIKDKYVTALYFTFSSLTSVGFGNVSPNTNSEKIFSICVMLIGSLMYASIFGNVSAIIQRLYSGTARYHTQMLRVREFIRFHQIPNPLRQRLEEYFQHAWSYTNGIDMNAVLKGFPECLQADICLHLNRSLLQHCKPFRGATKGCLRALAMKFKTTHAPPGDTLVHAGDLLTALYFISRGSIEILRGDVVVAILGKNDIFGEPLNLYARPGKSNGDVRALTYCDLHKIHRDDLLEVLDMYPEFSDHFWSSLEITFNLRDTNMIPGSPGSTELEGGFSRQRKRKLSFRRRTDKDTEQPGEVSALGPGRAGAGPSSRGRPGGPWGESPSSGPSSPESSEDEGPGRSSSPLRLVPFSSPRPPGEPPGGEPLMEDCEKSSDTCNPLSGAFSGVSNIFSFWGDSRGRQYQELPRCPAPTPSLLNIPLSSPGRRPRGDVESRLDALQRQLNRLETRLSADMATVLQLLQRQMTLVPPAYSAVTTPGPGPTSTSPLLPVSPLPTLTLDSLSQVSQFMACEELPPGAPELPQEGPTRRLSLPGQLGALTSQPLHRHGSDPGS
T10 sequence (P10635 whole entry): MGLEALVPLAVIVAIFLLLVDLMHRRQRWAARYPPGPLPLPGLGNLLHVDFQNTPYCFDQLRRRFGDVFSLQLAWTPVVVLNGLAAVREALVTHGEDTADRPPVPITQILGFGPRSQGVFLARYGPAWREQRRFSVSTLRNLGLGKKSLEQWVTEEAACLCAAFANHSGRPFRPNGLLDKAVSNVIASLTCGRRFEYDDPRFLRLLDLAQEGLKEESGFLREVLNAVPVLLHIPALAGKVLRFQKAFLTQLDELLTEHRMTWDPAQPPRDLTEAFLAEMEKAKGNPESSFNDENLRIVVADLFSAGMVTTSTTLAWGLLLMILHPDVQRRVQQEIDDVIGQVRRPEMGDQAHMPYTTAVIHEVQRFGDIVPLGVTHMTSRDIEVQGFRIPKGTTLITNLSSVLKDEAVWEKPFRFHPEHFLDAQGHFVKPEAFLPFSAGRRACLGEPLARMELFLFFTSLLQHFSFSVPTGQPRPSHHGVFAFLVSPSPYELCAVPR
T2 sequence (Q92633 whole entry): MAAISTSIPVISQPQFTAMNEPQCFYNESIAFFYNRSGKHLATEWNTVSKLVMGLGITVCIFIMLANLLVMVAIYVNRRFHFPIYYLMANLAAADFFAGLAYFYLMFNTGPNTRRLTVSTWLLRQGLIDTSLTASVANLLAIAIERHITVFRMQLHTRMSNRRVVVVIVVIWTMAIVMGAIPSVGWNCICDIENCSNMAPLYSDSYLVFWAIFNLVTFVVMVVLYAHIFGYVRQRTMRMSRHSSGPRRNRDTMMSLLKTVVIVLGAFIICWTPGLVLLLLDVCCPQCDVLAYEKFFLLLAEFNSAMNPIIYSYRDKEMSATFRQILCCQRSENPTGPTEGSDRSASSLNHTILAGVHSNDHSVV
T4 sequence (P41143 whole entry): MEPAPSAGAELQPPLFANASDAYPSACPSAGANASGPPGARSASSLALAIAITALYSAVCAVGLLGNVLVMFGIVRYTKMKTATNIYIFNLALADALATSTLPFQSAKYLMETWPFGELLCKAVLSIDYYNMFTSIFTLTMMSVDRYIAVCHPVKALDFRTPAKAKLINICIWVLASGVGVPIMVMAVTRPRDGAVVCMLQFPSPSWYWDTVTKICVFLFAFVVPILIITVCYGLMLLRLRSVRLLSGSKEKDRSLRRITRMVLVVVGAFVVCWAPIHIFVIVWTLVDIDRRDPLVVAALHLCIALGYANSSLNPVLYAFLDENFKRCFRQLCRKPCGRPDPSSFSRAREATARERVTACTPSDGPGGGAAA
T7 sequence (P34972 whole entry): as the sequence (P34972 whole entry) above
T1 sequence (Q99677 whole entry): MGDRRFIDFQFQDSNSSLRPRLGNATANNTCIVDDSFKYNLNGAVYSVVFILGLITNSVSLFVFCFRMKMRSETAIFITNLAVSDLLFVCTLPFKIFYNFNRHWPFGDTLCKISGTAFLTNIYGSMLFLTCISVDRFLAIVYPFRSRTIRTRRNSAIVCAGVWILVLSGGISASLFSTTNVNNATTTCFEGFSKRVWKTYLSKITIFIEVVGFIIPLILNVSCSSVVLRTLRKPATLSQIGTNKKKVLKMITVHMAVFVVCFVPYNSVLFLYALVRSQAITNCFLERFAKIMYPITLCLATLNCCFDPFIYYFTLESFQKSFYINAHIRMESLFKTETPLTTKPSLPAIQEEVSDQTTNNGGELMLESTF
CYP450 1A2 (Homo sapiens), sequence (P11511 whole entry): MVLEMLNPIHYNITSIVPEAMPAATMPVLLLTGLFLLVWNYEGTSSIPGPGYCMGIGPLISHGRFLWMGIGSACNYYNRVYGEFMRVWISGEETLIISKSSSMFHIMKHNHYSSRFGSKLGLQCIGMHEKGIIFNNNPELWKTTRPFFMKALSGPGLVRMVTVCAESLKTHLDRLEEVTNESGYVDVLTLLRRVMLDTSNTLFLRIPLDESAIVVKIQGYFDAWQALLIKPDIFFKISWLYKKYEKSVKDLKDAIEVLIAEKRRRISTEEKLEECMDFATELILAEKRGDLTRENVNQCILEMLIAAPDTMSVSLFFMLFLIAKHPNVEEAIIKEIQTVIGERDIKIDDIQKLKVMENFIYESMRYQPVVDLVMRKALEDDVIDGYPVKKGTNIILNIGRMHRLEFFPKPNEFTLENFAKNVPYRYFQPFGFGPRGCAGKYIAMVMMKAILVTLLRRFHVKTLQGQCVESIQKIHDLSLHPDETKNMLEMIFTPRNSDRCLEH
T3 sequence (P08908 whole entry): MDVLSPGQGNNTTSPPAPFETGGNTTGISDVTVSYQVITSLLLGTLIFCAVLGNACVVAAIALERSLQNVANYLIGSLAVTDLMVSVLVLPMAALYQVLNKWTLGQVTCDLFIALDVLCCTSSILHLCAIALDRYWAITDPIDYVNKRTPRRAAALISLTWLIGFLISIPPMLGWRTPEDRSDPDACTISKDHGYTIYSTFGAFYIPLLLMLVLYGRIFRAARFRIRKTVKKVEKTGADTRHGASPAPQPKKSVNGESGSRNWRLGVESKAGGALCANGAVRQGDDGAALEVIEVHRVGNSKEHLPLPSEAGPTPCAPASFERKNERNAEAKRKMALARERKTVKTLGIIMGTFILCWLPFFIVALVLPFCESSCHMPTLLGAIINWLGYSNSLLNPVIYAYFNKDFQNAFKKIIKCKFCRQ
T11 sequence (P50406 whole entry): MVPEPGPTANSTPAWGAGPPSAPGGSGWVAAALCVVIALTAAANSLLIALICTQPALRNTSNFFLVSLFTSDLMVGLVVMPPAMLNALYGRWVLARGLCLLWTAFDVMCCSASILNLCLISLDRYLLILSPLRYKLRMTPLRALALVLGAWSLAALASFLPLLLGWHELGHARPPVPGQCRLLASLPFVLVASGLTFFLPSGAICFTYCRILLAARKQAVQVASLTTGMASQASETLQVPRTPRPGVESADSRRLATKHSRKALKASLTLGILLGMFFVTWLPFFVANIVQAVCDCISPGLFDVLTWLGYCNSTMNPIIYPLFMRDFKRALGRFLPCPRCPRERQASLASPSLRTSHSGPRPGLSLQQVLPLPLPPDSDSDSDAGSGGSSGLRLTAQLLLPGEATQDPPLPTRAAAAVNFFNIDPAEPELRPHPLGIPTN

## C[C@H](CO)NC(=O)c1cccc(/C=C\CCCC(=O)N(C)C)c1 [VSN16R]
GPR23
  Activity: Negligible Activity
rabbits
  Reproductive toxicology safe level: > 500 mg·kg^−1
EDG2
  Activity: Negligible Activity
Rats [1]; 120mg/kg p.o. in water
  Irwin test: Autonomic profile: Unchanged
  Irwin test: Behavioural Profile: Unchanged
  Irwin test: Neurological profile: Unchanged
Rats [1]; 120 mg·kg^−1 p.o.
  Adverse behavioural responses in Irwin tests: did not display any adverse behavioural responses
5-HT1A
  Activity: Negligible Activity
δ2
  Activity: Negligible Activity
A3
  Activity: Negligible Activity
dogs; dog, in vivo
  Result of Tissue Analysis in Dogs: Negative
dogs; p.o., dogs
  NOEL: 100 mg/kg
EDG8
  Activity: Negligible Activity
[2]
  Activity of VSN16R (Max. Tested): No Activity
hERG Kv11.1 K+ channel
  Activity: Negligible Activity
CB2; 10µM VSN16R
  Activity: Negligible Activity
CB2; tested to 10 μM
  Binding to CB2 receptors: did not bind
[3]
  IC50: > 10 µM
CYP450 2D6
  IC50: > 30 µM
CYP450 2C19
  IC50: > 10 µM
5-HT6
  Activity: Negligible Activity
Rats [4]; both, Sprague Dawley (rat), rat, in vivo, 28 days
  Histological analysis of animal tissues: essentially no significant microscopic findings attributable to VSN16R
Rats [4]; p.o., rats over 28 days
  NOEL: 1000 mg/kg
Rats [4]; rat, in vivo
  Clinical signs: occasional salivation and ‘ploughing’ behaviours
EDG6
  Activity: Negligible Activity

From paper PMC5522996, “Big conductance calcium‐activated potassium channel openers control spasticity without sedation” (British Journal of Pharmacology, 2017)
